“Also recorded” adds a separate entry of the source.
Test system: Mycobacterium obuense type strain ATCC 27023
Assay: Growth of Mycobacterium obuense on Middlebrook 7H11 medium with different Dapsone concentrations
Experimental: Mycobacterium obuense type strain ATCC 27023 was grown Middlebrook 7H11 medium comprising different concentrations of Dapsone™.

Nc1ccc(S(=O)(=O)c2ccc(N)cc2)cc1 [Dapsone ™, 4,4′-Diaminodiphenyl sulfone] was tested. Which Observed growth (Experiment 2 part a, 5 μg Dapsone/ml Middlebrook 7H11 medium) did it give?
Its Observed growth is 3 smooth colonies.

What about the Observed growth (Experiment 2 part a, 10 μg Dapsone/ml Middlebrook 7H11 medium) of the same compound?
Its Observed growth is “no growth”.

And the Observed growth (Experiment 2 part a, 20 μg Dapsone/ml Middlebrook 7H11 medium)?
Its Observed growth is “no growth”.

What about the Observed growth (Experiment 2 part a, 40 μg Dapsone/ml Middlebrook 7H11 medium) of the same compound?
Its Observed growth is “no growth”.

And the Observed growth (Experiment 2 part a, 50 μg Dapsone/ml Middlebrook 7H11 medium)?
Its Observed growth is “no growth”.

And the Observed growth (Experiment 2 part b, 3 μg Dapsone/ml Middlebrook 7H11 medium)?
Its Observed growth is “confluent smooth colonies”.

What about the Observed growth (Experiment 2 part b, 4 μg Dapsone/ml Middlebrook 7H11 medium) of the same compound?
The Observed growth was “small smooth colonies”.

And the Observed growth (Experiment 2 part b, 5 μg Dapsone/ml Middlebrook 7H11 medium)?
The Observed growth was “small smooth colonies”.

And the Observed growth (Experiment 2 part c, 5 μg Dapsone/ml Middlebrook 7H11 medium)?
Its Observed growth is “few rough colonies,; also recorded: mostly smooth colonies”.

What about the Observed growth (Experiment 2 part c, 7.5 μg Dapsone/ml Middlebrook 7H11 medium) of the same compound?
Its Observed growth is “few rough colonies,; also recorded: mostly smooth colonies”.

What about the Observed growth (Experiment 2 part c, 10 μg Dapsone/ml Middlebrook 7H11 medium) of the same compound?
The Observed growth was “mostly rough colonies”.

And the Observed growth (Experiment 2 part c, 12 μg Dapsone/ml Middlebrook 7H11 medium)?
Its Observed growth is “mostly rough colonies”.
